Literature values in PubChem BioAssay AID1259409 (Chemical Carcinogenesis Research Information System (CCRIS), 2018).
Several values for one entry are separate records, joined by “and”; a condition that tells them apart may be missing. Equal values may be shown once.

System: rodent chemically induced tumor inhibition, incidence and multiplicity
Experiment: CCRIS tumor inhibitor studies

c1ccc2c(c1)c1cccc3ccc4cccc2c4c31
tumour outcome (control, treated, inhibition, significance) (Carcinogen: BENZO[A]PYRENE, 50-32-8, Dose [Inhibitor]: 5 UG IN 0.1 ML ACETONE 3/WK ADMINISTERED SIMULTANEOUSLY WITH CARCINOGEN FOR DURATION OF STUDY (STUDY DURATION: 368 D), Route [Inhibitor]: DERMAL, Species: MOUSE, Strain/Sex: ICR/FEMALE, Target Tissue: Type of Lesion: SKIN: PAPILLOMA, Dose [Carcinogen]: 5 UG IN 0.1 ML ACETONE 3/WK FOR DURATION OF STUDY, Promoter: NONE USED): 14/50 (28%), 24/50 (48%), -71%, not calculated
tumour outcome (control, treated, inhibition, significance) (Carcinogen: BENZO[A]PYRENE, 50-32-8, Dose [Inhibitor]: 5 UG IN 0.1 ML ACETONE 3/WK ADMINISTERED SIMULTANEOUSLY WITH CARCINOGEN FOR DURATION OF STUDY (STUDY DURATION: 368 D), Route [Inhibitor]: DERMAL, Species: MOUSE, Strain/Sex: ICR/FEMALE, Target Tissue: Type of Lesion: SKIN: SQUAMOUS CARCINOMA, Dose [Carcinogen]: 5 UG IN 0.1 ML ACETONE 3/WK FOR DURATION OF STUDY, Promoter: NONE USED): 10/50 (20%), 9/50 (18%), 10%, not calculated
tumour outcome (control, treated, inhibition, significance) (Carcinogen: BENZO[A]PYRENE, 50-32-8, Dose [Inhibitor]: 15 UG IN 0.1 ML ACETONE 3/WK ADMINISTERED SIMULTANEOUSLY WITH CARCINOGEN FOR DURATION OF STUDY (STUDY DURATION: 368 D), Route [Inhibitor]: DERMAL, Species: MOUSE, Strain/Sex: ICR/FEMALE, Target Tissue: Type of Lesion: SKIN: PAPILLOMA, Dose [Carcinogen]: 5 UG IN 0.1 ML ACETONE 3/WK FOR DURATION OF STUDY, Promoter: NONE USED): 14/50 (28%), 33/50 (66%), -136%, not calculated
tumour outcome (control, treated, inhibition, significance) (Carcinogen: BENZO[A]PYRENE, 50-32-8, Dose [Inhibitor]: 15 UG IN 0.1 ML ACETONE 3/WK ADMINISTERED SIMULTANEOUSLY WITH CARCINOGEN FOR DURATION OF STUDY (STUDY DURATION: 368 D), Route [Inhibitor]: DERMAL, Species: MOUSE, Strain/Sex: ICR/FEMALE, Target Tissue: Type of Lesion: SKIN: SQUAMOUS CARCINOMA, Dose [Carcinogen]: 5 UG IN 0.1 ML ACETONE 3/WK FOR DURATION OF STUDY, Promoter: NONE USED): 10/50 (20%), 27/50 (54%), -170%, not calculated

c1ccc(Cn2ccnc2)cc1
tumour outcome (control, treated, inhibition, significance) (Carcinogen: 7,12-DIMETHYLBENZ[A]ANTHRACENE, 57-97-6, Dose [Inhibitor]: 100 UG IN 0.2 ML ACETONE ONCE 5 MIN BEFORE CARCINOGEN TREATMENT (STUDY DURATION: 31 WK), Route [Inhibitor]: DERMAL, Species: MOUSE, Strain/Sex: CD-1/FEMALE, Target Tissue: Type of Lesion: SKIN: PAPILLOMA, Dose [Carcinogen]: 10 NMOL IN 0.2 ML ACETONE ONCE, Promoter: 12-O-TETRADECANOYLPHORBOL-13-ACETATE, 16561-29-8): 87%, 80%, 8%, not calculated
tumour outcome (control, treated, inhibition, significance) (Carcinogen: BENZO[A]PYRENE, 50-32-8, Dose [Inhibitor]: 100 UG IN 0.2 ML ACETONE ONCE 5 MINUTES BEFORE CARCINOGEN TREATMENT (STUDY DURATION: 31 WK), Route [Inhibitor]: DERMAL, Species: MOUSE, Strain/Sex: CD-1/FEMALE, Target Tissue: Type of Lesion: SKIN: PAPILLOMA, Dose [Carcinogen]: 400 NMOL IN 0.2 ML ACETONE ONCE, Promoter: 12-O-TETRADECANOYLPHORBOL-13-ACETATE, 16561-29-8): 90%, 78%, 13%, not calculated

CC1=C(O)C(=O)CO1
tumour outcome (control, treated, inhibition, significance) (Carcinogen: BENZO[A]PYRENE, 50-32-8, Dose [Inhibitor]: 0, 25 PPM IN DIET FOR 17 WK BEGINNING 1 WK POST CARCINOGEN TREATMENT (STUDY DURATION: 21 WK), Route [Inhibitor]: ORAL, Species: MOUSE, Strain/Sex: ICR/FEMALE, Target Tissue: Type of Lesion: FORESTOMACH: TUMOR, Dose [Carcinogen]: 1.5 MG IN 0.2 ML CORN OIL 1/WK FOR 4 WK, Promoter: NONE USED): 90%, 80%, 11%, not significant
tumour outcome (control, treated, inhibition, significance) (Carcinogen: BENZO[A]PYRENE, 50-32-8, Dose [Inhibitor]: 0, 50 PPM IN DIET FOR 17 WK BEGINNING 1 WK POST CARCINOGEN TREATMENT (STUDY DURATION: 21 WK), Route [Inhibitor]: ORAL, Species: MOUSE, Strain/Sex: ICR/FEMALE, Target Tissue: Type of Lesion: FORESTOMACH: TUMOR, Dose [Carcinogen]: 1.5 MG IN 0.2 ML CORN OIL 1/WK FOR 4 WK, Promoter: NONE USED): 90%, 85%, 6%, not significant
tumour outcome (control, treated, inhibition, significance) (Carcinogen: BENZO[A]PYRENE, 50-32-8, Dose [Inhibitor]: 0, 75 PPM IN DIET FOR 17 WK BEGINNING 1 WK POST CARCINOGEN TREATMENT (STUDY DURATION: 21 WK), Route [Inhibitor]: ORAL, Species: MOUSE, Strain/Sex: ICR/FEMALE, Target Tissue: Type of Lesion: FORESTOMACH: TUMOR, Dose [Carcinogen]: 1.5 MG IN 0.2 ML CORN OIL 1/WK FOR 4 WK, Promoter: NONE USED): 90%, 80%, 11%, not significant

O/N=C/Cc1c[nH]c2ccccc12
tumour outcome (control, treated, inhibition, significance) (Carcinogen: 7,12-DIMETHYLBENZ[A]ANTHRACENE, 57-97-6, Dose [Inhibitor]: 0.1 MMOL IN 1 ML DIMETHYL SULFOXIDE ONCE 20 HR PRIOR TO CARCINOGEN ADMINISTRATION FOLLOWED BY A 14 WK OBSERVATION PERIOD, Route [Inhibitor]: GAVAGE, Species: RAT, Strain/Sex: SPRAGUE-DAWLEY/FEMALE, Target Tissue: Type of Lesion: MAMMARY GLAND: TUMOR, Dose [Carcinogen]: 12 MG IN 1 ML OLIVE OIL ONCE, Promoter: NONE USED): 64%, 19%, 70%, p<0.05

NCCCCN
tumour outcome (control, treated, inhibition, significance) (Carcinogen: AZOXYMETHANE, 25843-45-2, Dose [Inhibitor]: 0, 300 UMOL/KG IN 0.9% SALINE 1/2 D FOR THE DURATION OF STUDY (STUDY DURATION: 40 WK), Route [Inhibitor]: INTRAPERITONEAL, Species: RAT, Strain/Sex: WISTAR/MALE, Target Tissue: Type of Lesion: COLON: TUMOR, Dose [Carcinogen]: 7.4 MG/KG IN 0.9% SALINE 1/WK FOR 10 WK, Promoter: NONE USED): 16/20 (80%), 6/18 (33%), 59%, p<0.01

C[C@@]12C[C@@]3(O)O[C@@H](O1)[C@]1(COC(=O)c4ccccc4)[C@H]3C[C@@]12O[C@@H]1O[C@H](CO)[C@@H](O)[C@H](O)[C@H]1O
tumour outcome (control, treated, inhibition, significance) (Carcinogen: AZOXYMETHANE, 25843-45-2, Dose [Inhibitor]: 0, 0.02% IN DIET IN WK 1-3 OF STUDY FOLLOWED BY BASAL DIET FOR DURATION OF STUDY (STUDY DURATION: 1 YR), Route [Inhibitor]: ORAL, Species: RAT, Strain/Sex: F344/MALE, Target Tissue: Type of Lesion: LARGE INTESTINE: ADENOCARCINOMA, Dose [Carcinogen]: 15 MG/KG BW 1/WK IN WK 1 AND 2 OF STUDY, Promoter: NONE USED): 13/27 (48%), 5/28 (18%), 63%, not significant
tumour outcome (control, treated, inhibition, significance) (Carcinogen: AZOXYMETHANE, 25843-45-2, Dose [Inhibitor]: 0, 0.02% IN DIET IN WK 1-3 OF STUDY FOLLOWED BY BASAL DIET FOR DURATION OF STUDY (STUDY DURATION: 1 YR), Route [Inhibitor]: ORAL, Species: RAT, Strain/Sex: F344/MALE, Target Tissue: Type of Lesion: LARGE INTESTINE: ADENOMA, Dose [Carcinogen]: 15 MG/KG BW 1/WK IN WK 1 AND 2 OF STUDY, Promoter: NONE USED): 6/27 (22%), 9/28 (32%), -45%, not significant

CC1=CCC(C(C)(C)O)CC1O (centres undefined)
tumour outcome (control, treated, inhibition, significance) (Carcinogen: 7,12-DIMETHYLBENZ[A]ANTHRACENE, 57-97-6, Dose [Inhibitor]: 0, 1% IN DIET FOR 3 WK BEGINNING 2 WK PRIOR TO CARCINOGEN DOSE (STUDY DURATION: 20 WK), Route [Inhibitor]: ORAL, Species: RAT, Strain/Sex: WISTAR/FEMALE, Target Tissue: Type of Lesion: MAMMARY GLAND: CARCINOMA, Dose [Carcinogen]: 50 MG/KG IN SESAME OIL ONCE, Promoter: NONE USED): 80%, 52%, 35%, not calculated and 98%, 84%, 14%, not significant
